Results: publication PMC4567917 (Bioorganic chemistry, 2015)
Where two headings read alike, the source gives them in different places. Values belong to the molecule of their own block, whether it stands above or below them. Non-standard residues stand in square brackets, D forms with d. No end group written: not given here. *: point of attachment. Biotin = O=C1N[C@H]2[C@H](CS[C@H]2CCCCC(=O)*)N1; Dap = NC[C@H](N)C(=O)O; Ahx = NCCCCCC(=O)O

Columns and labels:
GOAT = details: ref [33], cited from earlier work; for Km: read-out: published Km, published values
mouse GOAT [1] = target: T1, mouse GOAT (Mus musculus, UniProt P0C7A3); test: Microsomal ghrelin octanoyltransferase assay; details: for Km: read-out: Km (apparent) for octanoyl-CoA; for Km / Vmax (apparent) for octanoyl-CoA / Vmax (apparent): 50 μM palmitoyl-CoA, 1 min at 30°C; for Km / Vmax (apparent) for octanoyl-CoA: 25 μg microsome protein; for Vmax (apparent): ghrelin substrate varied, 25 μg microsome protein (2 ng GOAT); for Vmax (apparent) / maximum reaction rate, fold lower than for the natural Ser analogs: 1 μM octanoyl-CoA; for maximum reaction rate, fold lower than for the natural Ser analogs: relative to the Ser3 analog
T1 sequence (P0C7A3 1-435): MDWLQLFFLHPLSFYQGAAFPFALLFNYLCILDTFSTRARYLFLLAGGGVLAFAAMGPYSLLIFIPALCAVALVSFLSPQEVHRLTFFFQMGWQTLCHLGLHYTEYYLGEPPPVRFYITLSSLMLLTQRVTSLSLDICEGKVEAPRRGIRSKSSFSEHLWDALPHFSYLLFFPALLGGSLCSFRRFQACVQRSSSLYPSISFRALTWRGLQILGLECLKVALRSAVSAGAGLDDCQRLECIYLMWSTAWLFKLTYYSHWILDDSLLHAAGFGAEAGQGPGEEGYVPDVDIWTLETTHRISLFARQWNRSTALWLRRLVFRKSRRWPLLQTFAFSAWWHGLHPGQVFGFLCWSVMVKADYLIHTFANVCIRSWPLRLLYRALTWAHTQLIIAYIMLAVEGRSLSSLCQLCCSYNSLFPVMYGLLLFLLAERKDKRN

[2] = cited from earlier work
mouse GOAT [3] = target: T1, mouse GOAT; test: Ghrelin octanoyltransferase assays at varying pH; assay type: biochemical; details: 7.5 μM and 100 μM substrate, 1 min, Bis-Tris propane pH 6–9

- Km (mouse GOAT [1]; vs 10 μM Ghrelin27): 0.44 ± 0.04 µM
- Km (mouse GOAT [1]; vs 80 μM Ghrelin10): 0.81 ± 0.04 µM
- Vmax (apparent) for octanoyl-CoA (mouse GOAT [1]; vs 10 μM Ghrelin27): 250 ± 8 nmol/min/mg
- Vmax (apparent) for octanoyl-CoA (mouse GOAT [1]; vs 80 μM Ghrelin10): 190 ± 4 nmol/min/mg
Molecule: CCCCCCCC(=O)SCCNC(=O)CCNC(=O)[C@H](O)C(C)(C)COP(=O)(O)OP(=O)(O)OC[C@H]1O[C@@H](n2cnc3c(N)ncnc32)[C@H](O)[C@@H]1OP(=O)(O)O [Octanoyl-CoA, reference compound]
- Km (GOAT): 0.6 µM
- microsomal octanoyl-CoA hydrolysis (GOAT; with 50 μM palmitoyl-CoA, under the conditions of the assay): < 25%

- Vmax (apparent) (mouse GOAT [1]): 230 ± 10 nmol/min/mg
- fold lower apparent Km relative to Ghrelin10 (mouse GOAT [1]; relative to Ghrelin10): 10 fold
Molecule: GSSFLSPEHQRVQQRKESKKPPAKLQPK (Biotin)G (GSSFLSPEHQRVQQRKESKKPPAKLQPK-{Gly(Biotin)}; not fully specified) [Ghrelin27]

- Vmax (apparent) (mouse GOAT [1]): 85 ± 5 nmol/min/mg
- maximum reaction rate, fold lower than for the natural Ser analogs (mouse GOAT [1]): approximately 2 fold
Molecule: GS[Dap]FLSPEHQRVQQRKESKKPPAKLQPK(Biotin)G [Dap3-Ghrelin27]

- variation of octanoylation rate across pH 6–9 (mouse GOAT [3]): ≤ 2 fold
- Vmax (apparent) (mouse GOAT [1]): 74 ± 8 nmol/min/mg
- maximum reaction rate, fold lower than for the natural Ser analogs (mouse GOAT [1]): approximately 2 fold
Molecule: GS(Dap)FLSPEHQ(Ahx)K(Biotin)G [Dap3-Ghrelin10]

More lines, now with the values behind:

Molecule: N[C@@H](CO)C(=O)O [Ser]
- sidechain pKa (ROH to RO-) ([2]; ref [37]): ~ 13

Molecule: GSSFLSPEHQ[Ahx]K(Biotin)G [Ghrelin10]
- variation of octanoylation rate across pH 6–9 (mouse GOAT [3]): ≤ 2 fold
- Vmax (apparent) (mouse GOAT [1]): 160 ± 10 nmol/min/mg
- fold higher apparent Km than Ghrelin27 (mouse GOAT [1]; relative to Ghrelin27): ~ 10 fold

Molecule: NCC(N)C(=O)O (stereo not shown) [amino-Ala, 2,3-diaminoproprionic acid]
- sidechain pKa (RNH3+ to RNH2) ([2]; peptide-incorporated residue, ref [36]): ~ 8

B1: proghrelin-His8: proghrelin with His8 tag; proghrelin is likely the natural substrate for GOAT (protein, UniProt Q9UBU3 24-117, looked up)
pro-form: GSSFLSPEHQRVQQRKESKKPPAKLQPRALAGWLRPEDGGQAEGAEDELEVRFNAPFDVGIKLSGVQYQQHSQALGKFLQDILWEEAKEAPADK
modifications: pro-form His8 tag
- Km (GOAT): 6 µM
